Where two headings read alike, the source gives them in different places.
Columns and labels:
full-length human AR = biological target: T1, full-length human AR (Homo sapiens, UniProt P10275); assay: ARR3tk-luciferase reporter assay in PC3 cells, wild-type AR; type: cell-based; conditions: transient AR, R1881
T1 construct: expressed in transfected cells; host or cells: PC3 (AR-negative human prostate cancer cells)
T1 sequence (P10275 1-920): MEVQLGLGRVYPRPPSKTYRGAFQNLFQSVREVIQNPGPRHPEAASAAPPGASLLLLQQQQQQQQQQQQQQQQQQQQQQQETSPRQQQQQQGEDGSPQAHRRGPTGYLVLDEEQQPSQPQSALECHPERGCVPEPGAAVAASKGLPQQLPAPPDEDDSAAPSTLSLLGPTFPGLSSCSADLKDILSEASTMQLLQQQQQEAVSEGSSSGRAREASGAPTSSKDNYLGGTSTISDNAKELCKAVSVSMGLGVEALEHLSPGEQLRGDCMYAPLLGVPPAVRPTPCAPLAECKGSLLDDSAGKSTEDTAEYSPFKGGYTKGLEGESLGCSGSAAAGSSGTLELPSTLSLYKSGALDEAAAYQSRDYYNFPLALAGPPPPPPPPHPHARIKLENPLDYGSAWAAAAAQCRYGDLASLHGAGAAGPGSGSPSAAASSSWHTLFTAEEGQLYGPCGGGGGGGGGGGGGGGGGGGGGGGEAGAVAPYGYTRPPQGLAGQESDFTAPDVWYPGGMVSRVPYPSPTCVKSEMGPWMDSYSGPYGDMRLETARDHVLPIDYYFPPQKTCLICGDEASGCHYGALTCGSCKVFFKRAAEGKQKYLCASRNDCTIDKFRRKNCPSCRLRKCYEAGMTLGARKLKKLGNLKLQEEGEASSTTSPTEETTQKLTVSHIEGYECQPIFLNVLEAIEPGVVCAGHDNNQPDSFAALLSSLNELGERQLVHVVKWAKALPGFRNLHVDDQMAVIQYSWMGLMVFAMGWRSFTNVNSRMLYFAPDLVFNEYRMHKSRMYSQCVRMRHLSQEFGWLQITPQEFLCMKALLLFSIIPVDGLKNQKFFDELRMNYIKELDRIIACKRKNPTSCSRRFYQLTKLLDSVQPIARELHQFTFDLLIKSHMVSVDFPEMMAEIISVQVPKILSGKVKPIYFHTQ
Method: 9. Transient Transfection: The PC3/MCF7 cells were seeded into a 96-well plate (2,000 cells/well). After 24 hrs, the wild-type AR (50 ng/well)/AR mutants and AR3TK-luciferase plasmids (1:3) were co-transfected into PC3 cells or ERE-luciferase (50 ng/well) was transfected into MCF7 cells using transfection reagent TT20. 24 hrs after the transfection, the cells were treated with the compounds at various concentrations. And 24 hrs later, the cells were lysed and the reading was taken using a luminometer.

endogenous wild type AR = assay: ARR3tk-luciferase assay in R1-AD1 cells; type: cell-based, human
AR Y594A mutant = AR Y594A mutant (Homo sapiens, UniProt P10275, Y594A); assay: ARR3tk-luciferase reporter assay in PC3 cells, AR Y594A
AR Y594A mutant, sequence (P10275 whole entry Y594A): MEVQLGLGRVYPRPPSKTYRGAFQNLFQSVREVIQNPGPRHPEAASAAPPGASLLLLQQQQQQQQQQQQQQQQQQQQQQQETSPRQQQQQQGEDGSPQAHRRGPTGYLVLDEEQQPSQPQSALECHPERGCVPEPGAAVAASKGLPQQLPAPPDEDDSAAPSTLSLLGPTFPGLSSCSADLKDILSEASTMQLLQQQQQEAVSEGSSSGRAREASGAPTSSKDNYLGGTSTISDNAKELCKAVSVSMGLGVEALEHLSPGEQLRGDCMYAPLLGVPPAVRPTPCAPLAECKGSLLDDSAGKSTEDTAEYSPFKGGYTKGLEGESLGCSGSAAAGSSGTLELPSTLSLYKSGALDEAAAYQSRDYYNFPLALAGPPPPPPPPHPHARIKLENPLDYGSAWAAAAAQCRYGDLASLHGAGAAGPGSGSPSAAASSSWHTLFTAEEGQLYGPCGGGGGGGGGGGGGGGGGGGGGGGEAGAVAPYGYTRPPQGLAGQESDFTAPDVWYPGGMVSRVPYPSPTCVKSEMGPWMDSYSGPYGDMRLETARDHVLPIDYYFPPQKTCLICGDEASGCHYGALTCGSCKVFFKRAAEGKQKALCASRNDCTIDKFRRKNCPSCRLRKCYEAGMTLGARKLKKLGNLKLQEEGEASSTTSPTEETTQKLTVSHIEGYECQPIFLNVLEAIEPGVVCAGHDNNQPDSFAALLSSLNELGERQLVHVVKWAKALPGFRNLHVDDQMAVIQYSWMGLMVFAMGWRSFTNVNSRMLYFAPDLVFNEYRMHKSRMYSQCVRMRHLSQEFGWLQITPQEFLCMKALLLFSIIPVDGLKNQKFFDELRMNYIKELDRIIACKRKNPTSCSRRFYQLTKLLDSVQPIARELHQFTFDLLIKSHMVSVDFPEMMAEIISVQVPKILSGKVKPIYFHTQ
Method: Cells were then treated with compounds at various concentrations and 0.1 nMR1881 (in 100% ethanol) for 24 h. […] Cell lysis was carried out with 60 μl of 1X passive lysis buffer/well (Promega™)
20 μl of cell lysate from each well were mixed with 50 μl of luciferase assay reagent (Promega™), and luminescence was recorded on a TECAN™ M200pro plate reader. Luciferase assays with splice variant AR were performed the same way but with only 5 ng of pcDNA3.1 AR-V7 (to limit the high level of AR-V7 expression) and no R1881.

YFP-AR [1] = biological target: T2, YFP-AR (Homo sapiens, UniProt P10275); assay: Luciferase assay with YFP-AR in PC3 cells; type: cell-based
T2 construct: plasmids encoding YFP-tagged full-length AR (yellow fluorescent protein, YFP-AR); expressed in transfected cells; host or cells: PC3
T2 sequence (P10275 1-920): T1 sequence (P10275 1-920)
From the text: (§1) the underlined primer sections anneal to the specified template, although their 5′-extensions (italicized) are complementary to the corresponding primer sequence of the other PCR. Plasmid assembly is achieved by mixing the PCR products from each reaction (Klock, H. E. et al. (2008) Combining the polymerase incomplete primer extension method for cloning and mutagenesis with microscreening to accelerate structural genomics efforts. Proteins 71, 982-994), followed by transformation into chemically competent bacteria. A similar strategy was used to clone the AR-DBD+hinge into the Pan4 vector (avidity) expressing the N-terminal biotinylation sequence ([…] ) and C-terminal His tag. YFP-AR plasmid was a gift from Dr. Jan Trapman (van Royen, M. E. et al. (2012) Stepwise androgen receptor dimerization. J. Cell Sci. 125, 1970-1979) and is based on pEYFP-C1 (Clontech™). YFP-V7 was constructed by polymerase incomplete primer extension method using the following primers and templates: AR-V7 insert from pcDNA3. AR-V7 template

PARP = assay: Western blots against PARP / cleaved PARP (apoptosis); type: cell-based, human; conditions: PC3 luciferase assay lysates
Method: Cell lysates (40 μl) from luciferase assays (96-well plate) were separated on a 10% SDS-polyacrylamide mini gel. Protein was transferred to methanol-charged PVDF membranes and probed with anti-AR441 (mouse, Sigma™) monoclonal primary antibody. Blots were also probed with polyclonal anti-actin (rabbit, Sigma™) to show equal loading and polyclonal anti-PARP/anti-cleaved PARP (rabbit, Sigma™) to test for induction of apoptosis. Lysates from CWR-R1 cells were additionally probed with polyclonal anti-FKBP5 (rabbit, Sigma™) following 2 days of incubation with compounds.

YFP-V7 = biological target: T3, YFP-V7 (Homo sapiens, UniProt P10275); assay: Luciferase assay with YFP-V7 in PC3 cells; type: cell-based
T3 construct: expressed in transfected cells; host or cells: PC3
T3 sequence (P10275 1-644 isoform P10275-3): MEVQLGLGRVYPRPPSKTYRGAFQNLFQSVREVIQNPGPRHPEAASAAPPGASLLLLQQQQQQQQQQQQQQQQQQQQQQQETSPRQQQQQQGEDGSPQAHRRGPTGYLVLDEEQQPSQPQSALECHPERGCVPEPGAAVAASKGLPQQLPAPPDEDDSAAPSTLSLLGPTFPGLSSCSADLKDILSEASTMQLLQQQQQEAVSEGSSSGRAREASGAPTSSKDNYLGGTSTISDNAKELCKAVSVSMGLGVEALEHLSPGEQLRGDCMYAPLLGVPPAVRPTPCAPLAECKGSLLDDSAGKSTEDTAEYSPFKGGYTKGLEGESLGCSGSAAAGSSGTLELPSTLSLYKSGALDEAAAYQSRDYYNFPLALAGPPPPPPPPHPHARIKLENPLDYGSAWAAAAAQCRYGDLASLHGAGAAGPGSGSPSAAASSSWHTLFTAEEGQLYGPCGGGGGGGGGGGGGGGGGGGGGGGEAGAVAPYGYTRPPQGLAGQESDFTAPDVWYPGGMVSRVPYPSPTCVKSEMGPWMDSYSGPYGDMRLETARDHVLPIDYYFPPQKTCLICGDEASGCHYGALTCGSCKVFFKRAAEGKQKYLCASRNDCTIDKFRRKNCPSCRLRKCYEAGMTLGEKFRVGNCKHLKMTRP
From the text: as §1

PSA = assay: Prostate-specific antigen (PSA) assay, secreted PSA from the eGFP assay plates; type: cell-based, human; conditions: Homo sapiens
Method: 3. Prostate-specific antigen (PSA) assay: The evaluation of PSA levels secreted into the media was performed in parallel to the eGFP assay using the same plates. After cells were incubated for 3 days, 150 μl of the media was taken from each well, and added to 150 μl of PBS.

YFP-AR [2] = biological target: T2, YFP-AR; assay: Confocal microscopy of YFP-AR nuclear localization in PC3 cells; type: cell-based
Method: Transfection of YFP-AR or YFP-V7 plasmids (100 ng per well) was performed using TT20 (3 μl) for 48 h. […] After aspiration of the media, cells were washed once with PBS and fixed in 4% paraformaldehyde overnight at 4° C., followed by mounting on charged cover slides using DAPI mount (Vector Laboratories).

LNCaP cells = assay: Cell viability (MTS) assay, LNCaP; type: cell-based, human; conditions: 0.1 nM R1881
Method: 1. Cell Culture: LNCaP and PC3 human prostate cancer cells were obtained from American Type Culture Collection (ATCC, Manassas, Va.) and grown in RPMI 1640 medium supplemented with 5% fetal bovine serum (FBS) (Invitrogen). […]. All cells were maintained at 37° C. in 5% CO2.
7. Cell viability assay: The PC3, LNCaP, and MDV3100-resistant cells were plated at 3,000 cells per well in RPMI 1640 containing 5% charcoal stripped serum (CSS) in a 96-well plate, treated with 0.1 nM R1881 and compounds (0-25 μM) for 96 hrs.

[3] = LNCaP eGFP cells, R1881, secreted PSA

| SMILES | IC50 (full-length human AR) [nM] | inhibition of wild type AR transcriptional activity (endogenous wild type AR) | IC50 (AR Y594A mutant) [µM] | inhibition of YFP-AR driven luciferase expression (YFP-AR [1]) | toxicity / induction of apoptosis (PARP cleavage) (PARP) | inhibition of YFP-V7 driven luciferase expression (YFP-V7) | IC50 (PSA; [3]) [nM] | IC50 (PSA; Series 1) [nM] | R1881-stimulated nuclear localization of YFP-AR (YFP-AR [2]; 10 nM R1881, 25 μM compound, 6 h) | nuclear localization of YFP-AR in the absence of R1881 (YFP-AR [2]; 25 μM compound) | inhibition of cell growth, LNCaP (LNCaP cells) | R1881-stimulated nuclear localization of YFP-AR (YFP-AR [2]) | nuclear localization of YFP-AR in the absence of R1881 (YFP-AR [2]) |
| --- | --- | --- | --- | --- | --- | --- | --- | --- | --- | --- | --- | --- | --- |
| Brc1ncn(-c2csc(N3CCOCC3)n2)c1Br [Compound 14449] | 340 | could inhibit | 3 to 6 | could be inhibited | little or no toxicity | could be inhibited | 170 | 170 | did not prevent R1881-stimulated nuclear localization | could not stimulate any nuclear localization | concentration-dependent inhibition of the cell growth |  |  |
| c1ccc(-c2csc(N3CCOCC3)n2)cc1 [Compound 14228, 4-(4-phenylthiazol-2-yl)morpholine] | 2360 | could inhibit | 3 to 6 | could be inhibited | little or no toxicity | could be inhibited | 188 | 280 |  |  | strongly inhibits | did not prevent R1881-stimulated nuclear localization | could not stimulate any nuclear localization |

Reference: US10011573B2, “Human androgen receptor DNA-binding domain (DBD) compounds as therapeutics and methods for their use” (The University of British Columbia, priority 2014, dated 2018)
